Reference: US8642628B2, “Pyrrole inhibitors of S-nitrosoglutathione reductase” (N30 Pharmaceuticals, Inc., priority 2008, dated 2014)

Each compound was assayed against T1, GSNOR (GSNO Reductase) (Homo sapiens, UniProt P11766) (assay: GSNOR assay (inhibition of GSNOR activity, change in 340 nm absorbance)). Settings: 100 mM NaPO4 pH 7.4, 0.240 mM GSNO, 0.300 mM NADH, 0.5 μg/mL GSNO Reductase, 1% DMSO, 25° C.; values given as 'about' bounds; read-out: IC50 (GSNOR inhibitor activity).
T1 construct: made in house; host or cells: E. coli (arabinose-induced)
Format: biochemical
Description: Various compounds were tested in vitro for their ability to inhibit GSNOR activity. […] GSNOR expression and purification is described in Biochemistry 2000, 39, 10720-10729.
GSNOR fermentation: Pre-cultures were grown from stabs of a GSNOR glycerol stock in 2XYT media containing 100 ug/ml ampicillin after an overnight incubation at 37° C. Cells were then added to fresh 2XYT (4L) containing ampicillin and grown to an OD (A600) of 0.6-0.9 at 37° C. before induction. GSNOR expression was induced with 0.1% arabinose in an overnight incubation at 20° C.
GSNOR Purification: E. coli cell paste was lysed by nitrogen cavitation and the clarified lysate purified by Ni affinity chromatography on an AKTA FPLC (Amersham Pharmacia). The column was eluted in 20 mM Tris pH 8.0/250 mM NaCl with a 0-500 mM imidazole gradient. […] GSNOR was recovered in the flowthrough fraction and for crystallography is further purified by Q-Sepharose and Heparin flowthrough chromatography in 20 mM Tris pH 8.0, 1 mM DTT, 10 uM ZnSO4.
GSNOR assay: GSNO and Enzyme/NADH Solutions are made up fresh each day. The Solutions are filtered and allowed to warm to room temperature. GSNO Solution: 100 mM NaPO4 (pH 7.4), 0.480 mM GSNO. 396 μL of GSNO Solution is added to a cuvette followed by 8 μL of test compound in DMSO (or DMSO only for full reaction control) and mixed with the pipette tip. Compounds to be tested are made up at a stock concentration of 10 mM in 100% DMSO. 2 fold serial dilutions are done in 100% DMSO. 8 μL of each dilution are added to an assay so that the final concentration of DMSO in the assay is 1%. The concentrations of compounds tested range from 100 to 0.003 μM. Enzyme/NADH Solution: 100 mM NaPO4 (pH 7.4), 0.600 mM NADH, 1.0 μg/mL GSNO Reductase. 396 μL of the Enzyme/NADH Solution is added to the cuvette to start the reaction. The cuvette is placed in the Cary 3E UV/Visible Spectrophotometer and the change in 340 nm absorbance/min at 25° C. is recorded for 3 minutes. The assays are done in triplicate for each compound concentration. IC50's for each compound are calculated using the standard curve analysis in the Enzyme Kinetics Module of SigmaPlot.
Final assay conditions: 100 mM NaPO4, pH 7.4, 0.240 mM GSNO, 0.300 mM NADH, 0.5 μg/mL GSNO Reductase and 1% DMSO. Final volume: 800 μL/cuvette.

T1 sequence (P11766 whole entry): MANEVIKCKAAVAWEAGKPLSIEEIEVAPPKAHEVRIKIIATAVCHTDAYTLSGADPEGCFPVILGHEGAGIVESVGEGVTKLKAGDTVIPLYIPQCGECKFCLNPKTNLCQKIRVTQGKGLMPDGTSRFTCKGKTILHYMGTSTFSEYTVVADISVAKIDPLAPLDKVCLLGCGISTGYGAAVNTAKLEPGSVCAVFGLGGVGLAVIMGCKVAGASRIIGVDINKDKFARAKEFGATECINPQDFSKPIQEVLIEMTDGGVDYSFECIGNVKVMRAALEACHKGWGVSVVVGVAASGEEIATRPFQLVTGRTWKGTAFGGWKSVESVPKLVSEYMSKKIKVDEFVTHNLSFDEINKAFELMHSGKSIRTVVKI

Row | IC50 | SMILES
1 | < 5000 nM | COc1ccc(-c2ccn(-c3ccc(C(=O)O)c(F)c3)c2-c2ccc(C(N)=O)cc2C)cc1 [Example 16, 4-(2-(4-carbamoyl-2-methylphenyl)-3-(4-methoxyphenyl)-1H-pyrrol-1-yl)-2-fluorobenzoic acid]
2 | < 1000 nM | Cc1cc(C(N)=O)ccc1-c1c(-c2ccc(-n3ccnc3C)cc2)ccn1-c1ccc(O)c(F)c1 [Example 29, 4-(1-(3-fluoro-4-hydroxyphenyl)-3-(4-(2-methyl-1H-imidazol-1-yl)phenyl)-1H-pyrrol-2-yl)-3-methylbenzamide]
3 | < 1000 nM | COc1ccc(-c2ccn(-c3ccc(O)c([N+](=O)[O-])c3)c2-c2ccc(C(N)=O)cc2C)cc1 [Example 17, 4-(1-(4-hydroxy-3-nitrophenyl)-3-(4-methoxyphenyl)-1H-pyrrol-2-yl)-3-methylbenzamide]
4 | < 1000 nM | COc1ccc(-c2ccn(-c3ccc(O)c(C(=O)O)c3)c2-c2ccc(C(N)=O)cc2C)cc1 [Example 27, 5-(2-(4-carbamoyl-2-methylphenyl)-3-(4-methoxyphenyl)-1H-pyrrol-1-yl)-2-hydroxybenzoic acid]
5 | < 1000 nM | Cc1cc(C(N)=O)ccc1-c1c(-c2ccc(-n3ccnc3C)cc2)ccn1-c1cc(F)c(O)c(F)c1 [Example 30, 4-(1-(3,5-difluoro-4-hydroxyphenyl)-3-(4-(2-methyl-1H-imidazol-1-yl)phenyl)-1H-pyrrol-2-yl)-3-methylbenzamide]
6 | < 1000 nM | COc1ccc(-c2ccn(-c3ccc(O)c(F)c3)c2-c2ccc(C(N)=O)cc2C)cc1 [Example 23, 4-(1-(3-fluoro-4-hydroxyphenyl)-3-(4-methoxyphenyl)-1H-pyrrol-2-yl)-3-methylbenzamide]

Second part, the compound before the results:

Row | SMILES | IC50
7 | COc1ccc(-c2ccn(-c3cc(F)c(O)c(F)c3)c2-c2ccc(C(N)=O)cc2C)cc1 [Example 25, 4-(1-(3,5-difluoro-4-hydroxyphenyl)-3-(4-methoxyphenyl)-1H-pyrrol-2-yl)-3-methylbenzamide] | < 1000 nM
8 | COc1ccc(-c2ccn(CCC(=O)O)c2-c2ccc(C(N)=O)cc2C)cc1 [Example 1, 3-(2-(4-carbamoyl-2-methylphenyl)-3-(4-methoxyphenyl)-1H-pyrrol-1-yl)propanoic acid] | < 1000 nM
9 | COc1ccc(-c2ccn(-c3ccc(C(=O)O)c(O)c3)c2-c2ccc(C(N)=O)cc2C)cc1 [Example 15, 4-(2-(4-carbamoyl-2-methylphenyl)-3-(4-methoxyphenyl)-1H-pyrrol-1-yl)-2-hydroxybenzoic acid] | < 1000 nM
10 | COc1ccc(-n2ccc(CCC(=O)O)c2-c2ccc(C(N)=O)cc2C)cc1 [Example 6, 3-(2-(4-carbamoyl-2-methylphenyl)-1-(4-methoxyphenyl)-1H-pyrrol-3-yl)propanoic acid] | < 1000 nM
11 | COc1ccc(-c2ccn(-c3ccc(O)cn3)c2-c2ccc(C(N)=O)cc2C)cc1 [Example 26, 4-(1-(5-hydroxypyridin-2-yl)-3-(4-methoxyphenyl)-1H-pyrrol-2-yl)-3-methylbenzamide] | < 5000 nM
12 | Cc1cc(C(N)=O)ccc1-c1c(-c2ccc(-n3ccnc3)cc2)ccn1CCC(=O)O [Example 5, 3-(3-(4-(1H-imidazol-1-yl)phenyl)-2-(4-carbamoyl-2-methylphenyl)-1H-pyrrol-1-yl)propanoic acid] | < 1000 nM
13 | COc1ccc(-c2ccn(CC(C)C(=O)O)c2-c2ccc(C(N)=O)cc2C)cc1 (stereo not drawn) [Example 3, 3-(2-(4-carbamoyl-2-methylphenyl)-3-(4-methoxyphenyl)-1H-pyrrol-1-yl)-2-methylpropanoic acid] | < 5000 nM
14 | COc1ccc(-c2ccn(CC(F)(F)C(=O)O)c2-c2ccc(C(N)=O)cc2C)cc1 [Example 9, 3-(2-(4-carbamoyl-2-methylphenyl)-3-(4-methoxyphenyl)-1H-pyrrol-1-yl)-2,2-difluoropropanoic acid] | < 5000 nM
15 | COc1ccc(-c2ccn(-c3ccc(C(=O)O)cc3)c2-c2ccc(C(N)=O)cc2C)cc1 [Example 19, 4-(2-(4-carbamoyl-2-methylphenyl)-3-(4-methoxyphenyl)-1H-pyrrol-1-yl)benzoic acid] | < 1000 nM
16 | Cc1cc(C(N)=O)ccc1-c1c(CCC(=O)O)ccn1-c1ccc(-n2ccnc2)cc1 [Example 13, 3-(1-(4-(1H-imidazol-1-yl)phenyl)-2-(4-carbamoyl-2-methylphenyl)-1H-pyrrol-3-yl)propanoic acid] | < 1000 nM
17 | COc1cc(Cl)ccc1-n1ccc(CCC(=O)O)c1-c1ccc(C(N)=O)cc1C [Example 14, 3-(2-(4-carbamoyl-2-methylphenyl)-1-(4-chloro-2-methoxyphenyl)-1H-pyrrol-3-yl)propanoic acid] | < 1000 nM
18 | COc1ccc(-c2ccn(-c3ccc(C(=O)O)c(Cl)c3)c2-c2ccc(C(N)=O)cc2C)cc1 [Example 20, 4-(2-(4-carbamoyl-2-methylphenyl)-3-(4-methoxyphenyl)-1H-pyrrol-1-yl)-2-chlorobenzoic acid] | < 5000 nM
